# Measured values as given in patent US6395738B1, “Benzofuran derivatives” (Kyowa Hakko Kogyo Co., Ltd., priority 1997, dated 2002).
# Like-named read-outs stand apart in the source and are kept apart here.
# Columns and labels:
# TNF α = assay: Inhibitory activity on production of TNF α in mouse model with LPS-induced sepsis; assay type: in vivo, BALB/c male mice; details: for Ratio of inhibition (%) of TNF α production: Dose (mg) 30, orally administered 90 minutes before LPS i.v., serum TNF α by ELISA 1 hour after LPS
# [1] = biological target: T1, Recombinant Human PDE IV Enzyme (HSPDE4A) (Homo sapiens, UniProt P27815); assay: Inhibition test on recombinant human PDE IV enzyme; assay type: biochemical; details: [3H]cAMP substrate
# T1 construct: except that 223 amino acids have been deleted from the N-terminal thereof; made in house; host or cells: E. coli
# T1 sequence (P27815 224-886 limits assumed): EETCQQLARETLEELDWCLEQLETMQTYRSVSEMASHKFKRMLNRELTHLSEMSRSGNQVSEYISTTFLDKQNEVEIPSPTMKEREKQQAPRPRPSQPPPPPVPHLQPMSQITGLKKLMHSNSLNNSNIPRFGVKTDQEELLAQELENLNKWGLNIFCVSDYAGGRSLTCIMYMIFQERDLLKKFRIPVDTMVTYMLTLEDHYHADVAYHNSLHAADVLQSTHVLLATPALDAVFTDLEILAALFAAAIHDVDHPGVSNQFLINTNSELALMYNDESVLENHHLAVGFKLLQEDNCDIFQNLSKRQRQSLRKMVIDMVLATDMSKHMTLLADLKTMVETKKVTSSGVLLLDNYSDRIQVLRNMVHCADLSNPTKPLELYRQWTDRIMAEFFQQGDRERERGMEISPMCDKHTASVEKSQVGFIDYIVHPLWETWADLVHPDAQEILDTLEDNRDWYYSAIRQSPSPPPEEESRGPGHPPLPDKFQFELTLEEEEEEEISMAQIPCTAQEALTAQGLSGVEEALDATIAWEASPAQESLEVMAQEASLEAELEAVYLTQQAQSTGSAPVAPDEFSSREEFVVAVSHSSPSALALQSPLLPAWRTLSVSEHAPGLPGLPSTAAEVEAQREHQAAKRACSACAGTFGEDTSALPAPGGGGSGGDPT
# Description: Inhibition Test on Recombinant Human PDE IV Enzyme
# Human phosphodiesterase cDNA (HSPDE4A) was isolated from testicles. Its predicted amino acid sequence is identical with the sequence (HSPDE4A5) reported by Bolger, G. et al. (Mol. Cell. Biol., 6558 (1993)) except that 223 amino acids have been deleted from the N-terminal thereof. This recombinant protein was expressed by an E. coli expression plasmid and then purified. The PDE activity was measured in the following 2-step process according to the method of Kincaid, R. and Manganiello, V. [Method. Enzymol., 159, 457 (1988)]. The substrate used was [^3H]cAMP (final concentration: […]), and the reaction was performed in a standard mixture containing N,N-bis(2-hydroxyethyl)-2-aminoethanesulfonic acid (50 mmol/l, pH 7.2), MgCl2 (1 mmol/l) and soybean trypsin inhibitor (0.1 mg/ml). The reaction was initiated by adding the enzyme thereto, and the mixture was incubated at 30° C. for 10 to 30 minutes. The reaction was quenched by hydrochloric acid, and the formed 5′-AMP was completely decomposed with […]. This sample was subjected to chromatography on DEAE-Sephadex A-25, and the eluted [^3H]adenosine was counted with a scintillation counter. The test compound was added after dissolved (concentration: 1.7%) in DMSO.
# Male Sunkus murinus = assay: Vomiting test on male Sunkus; assay type: in vivo; details: Dose (mg) 10; intraperitoneal; observed for 1 hour
# Description: Vomiting Test on Male Sunkus
# Male Sunkus murinus weighing about 60 g, 5 to 15 animals/group, were used in the test According to the method of Matsuki et al. (Japan J. Pharmacol., 48, 303 (1988)), each Sunkus animal was isolated and left in a wire-netting cage (15 cm width×21 cm length×15 cm height). Each test compound was suspended in physiological saline containing 0.5% Tween 80 and then intraperitoneally (i.p.) administered into each animal in a dose of 10 μl/g. […] The results were expressed in the number of animals with vomiting/the number of tested animals in the group given the test compound.
# Compounds P and Q were used as the comparative compounds.
# Water solubility = assay type: physicochemical
# Description: Further, Compound (I) has an amide structure containing a piperazine ring at the 2-position of the benzofuran skeleton and can be converted into a pharmaceutically acceptable acid addition salt. […] For example, Compound 1 upon conversion into monohydrochloride becomes dissolved in water at a ratio of 7.4 μg/ml.
# [2] = concentration of test compound 10^−7 mol/L
# [3] = concentration of test compound 10^−8 mol/L
melting point,"Ratio of inhibition (%) [1, 2]","Ratio of inhibition (%) [1, 3]",Number of animals with vomiting/Number of tested animals (Male Sunkus murinus),"solubility (Water solubility; Compound 1 upon conversion into monohydrochloride, read-out: dissolved in water (water solubility))",solubility (Water solubility; read-out: water solubility),Structure (SMILES),Ratio of inhibition (%) of TNF α production (TNF α),inhibitory activity on production of TNF α (in words) (TNF α; summary of Table 3)
164 to 165 °C,72%,22%,0/5,–,–,"COc1ccc(C(=O)Nc2c(Cl)cncc2Cl)c2cc(C(=O)N3CCN(CCO)CC3)oc12 [Compound 2, 4-(3,5-Dichloro-4-pyridyl)carbamoyl-2-[4-(2-hydroxyethyl)-1-piperazinyl]carbonyl-7-methoxybenzofuran]",65%,–
224 to 225 °C,75%,25%,0/5,7.4 µg/mL,–,"COc1ccc(C(=O)Nc2c(Cl)cncc2Cl)c2cc(C(=O)N3CCN(C)CC3)oc12 [Compound 1, 4-(3,5-Dichloro-4-pyridyl)carbamoyl-7-methoxy-2-(4-methyl-1-piperazinyl)carbonylbenzofuran]",68%,–
–,–,–,0/5,–,≤ 1 µg/mL,"COc1ccc(C(=O)Nc2c(Cl)cncc2Cl)c2cc(C(=O)c3ccccc3)oc12 [Compound Q, 2-benzoyl-4-(3,5-dichloro-4-pyridyl)carbamoyl-7-methoxybenzofuran, reference compound]",30%,high inhibitory activity

# Second part, the compound before the results:
Structure (SMILES),melting point,"Ratio of inhibition (%) [1, 2]","Ratio of inhibition (%) [1, 3]",Number of animals with vomiting/Number of tested animals (Male Sunkus murinus),"solubility (Water solubility; Compound 1 upon conversion into monohydrochloride, read-out: dissolved in water (water solubility))",solubility (Water solubility; read-out: water solubility),Ratio of inhibition (%) of TNF α production (TNF α),inhibitory activity on production of TNF α (in words) (TNF α; summary of Table 3)
"COc1ccc(C(=O)Cc2c(Cl)cncc2Cl)c2cc(C(=O)N3CCN(CCO)CC3)oc12 [Compound 14, 4-[2-(3,5-Dichloro-4-pyridyl)-1-oxoethyl]-2-[4-(2-hydroxyethyl)-1-piperazinyl]carbonyl-7-methoxybenzofuran]",155 to 156 °C,–,–,0/5,–,–,65%,–
"COc1ccc(C(=O)Cc2c(Cl)cncc2Cl)c2cc(C(=O)N3CCN(C)CC3)oc12 [Compound 13, 4-[2-(3,5-Dichloro-4-pyridyl)-1-oxoethyl]-2-(4-methyl-1-piperazinyl)carbonyl-7-methoxybenzofuran]",160 to 161 °C,–,–,0/5,–,–,65%,–
